From ChEMBL document CHEMBL4602647, “Protective effects of 10,11-dihydro-5H-dibenzo[b,f]azepine hydroxamates on vascular cognitive impairment” (Eur J Med Chem, 2020)
Calls of active or inactive are those of the source. The rule behind the calls is not given here.

How the values were obtained:
[1] = Half life in Sprague-Dawley rat at 2 mg/kg, iv measured up to 24 hrs; format: ADME, organism-based; details: in vivo
Histone deacetylase 9 = Histone deacetylase 9 (Homo sapiens, UniProt Q9UKV0); test: Inhibition of human HDAC9 using fluorogenic Boc-Lys(trifluoroacetyl)-AMC as substrate by fluorescence based analysis
Histone deacetylase 7 = target: T1, Histone deacetylase 7 (Homo sapiens, UniProt Q8WUI4); test: Inhibition of recombinant human N-terminal GST-tagged HDAC7 (518 to 991 residues) expressed in baculovirus infected insect cells using Boc-K(Ac)-AMC as substrate after 90 mins by fluorimetry analysis
T1 sequence (Q8WUI4 whole entry): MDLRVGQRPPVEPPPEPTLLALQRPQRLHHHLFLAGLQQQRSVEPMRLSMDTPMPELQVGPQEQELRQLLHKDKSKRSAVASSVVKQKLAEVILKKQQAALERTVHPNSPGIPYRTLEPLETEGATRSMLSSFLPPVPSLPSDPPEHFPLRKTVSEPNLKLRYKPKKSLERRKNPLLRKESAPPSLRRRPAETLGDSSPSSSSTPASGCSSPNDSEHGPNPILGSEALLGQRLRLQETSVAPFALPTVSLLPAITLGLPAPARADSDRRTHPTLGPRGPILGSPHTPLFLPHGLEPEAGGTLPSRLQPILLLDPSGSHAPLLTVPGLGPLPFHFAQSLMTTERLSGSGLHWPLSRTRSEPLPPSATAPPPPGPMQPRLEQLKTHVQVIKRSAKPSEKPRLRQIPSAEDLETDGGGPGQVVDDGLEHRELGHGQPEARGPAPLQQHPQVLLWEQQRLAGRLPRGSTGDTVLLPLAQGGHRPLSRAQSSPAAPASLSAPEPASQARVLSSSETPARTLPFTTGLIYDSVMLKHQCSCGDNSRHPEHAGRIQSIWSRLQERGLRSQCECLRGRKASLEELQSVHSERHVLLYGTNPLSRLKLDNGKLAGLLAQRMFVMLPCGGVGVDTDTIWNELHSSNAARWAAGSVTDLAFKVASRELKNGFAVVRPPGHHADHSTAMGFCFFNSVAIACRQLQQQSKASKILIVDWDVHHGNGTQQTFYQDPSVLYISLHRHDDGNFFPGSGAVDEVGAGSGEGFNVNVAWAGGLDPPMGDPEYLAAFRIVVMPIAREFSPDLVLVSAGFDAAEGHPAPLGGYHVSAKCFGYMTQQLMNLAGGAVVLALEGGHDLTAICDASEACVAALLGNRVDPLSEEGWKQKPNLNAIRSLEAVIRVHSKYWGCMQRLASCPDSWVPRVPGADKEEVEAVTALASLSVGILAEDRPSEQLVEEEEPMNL

[2] = target: T2, Protein deacetylase HDAC6 (Homo sapiens, UniProt Q9UBN7); test: Inhibition of recombinant human N-terminal GST-tagged HDAC6 (1 to 1215 residues) expressed in baculovirus infected insect cells using RHK-K(Ac)-AMC as substrate after 90 mins by fluorimetry analysis
T2 sequence (Q9UBN7 whole entry): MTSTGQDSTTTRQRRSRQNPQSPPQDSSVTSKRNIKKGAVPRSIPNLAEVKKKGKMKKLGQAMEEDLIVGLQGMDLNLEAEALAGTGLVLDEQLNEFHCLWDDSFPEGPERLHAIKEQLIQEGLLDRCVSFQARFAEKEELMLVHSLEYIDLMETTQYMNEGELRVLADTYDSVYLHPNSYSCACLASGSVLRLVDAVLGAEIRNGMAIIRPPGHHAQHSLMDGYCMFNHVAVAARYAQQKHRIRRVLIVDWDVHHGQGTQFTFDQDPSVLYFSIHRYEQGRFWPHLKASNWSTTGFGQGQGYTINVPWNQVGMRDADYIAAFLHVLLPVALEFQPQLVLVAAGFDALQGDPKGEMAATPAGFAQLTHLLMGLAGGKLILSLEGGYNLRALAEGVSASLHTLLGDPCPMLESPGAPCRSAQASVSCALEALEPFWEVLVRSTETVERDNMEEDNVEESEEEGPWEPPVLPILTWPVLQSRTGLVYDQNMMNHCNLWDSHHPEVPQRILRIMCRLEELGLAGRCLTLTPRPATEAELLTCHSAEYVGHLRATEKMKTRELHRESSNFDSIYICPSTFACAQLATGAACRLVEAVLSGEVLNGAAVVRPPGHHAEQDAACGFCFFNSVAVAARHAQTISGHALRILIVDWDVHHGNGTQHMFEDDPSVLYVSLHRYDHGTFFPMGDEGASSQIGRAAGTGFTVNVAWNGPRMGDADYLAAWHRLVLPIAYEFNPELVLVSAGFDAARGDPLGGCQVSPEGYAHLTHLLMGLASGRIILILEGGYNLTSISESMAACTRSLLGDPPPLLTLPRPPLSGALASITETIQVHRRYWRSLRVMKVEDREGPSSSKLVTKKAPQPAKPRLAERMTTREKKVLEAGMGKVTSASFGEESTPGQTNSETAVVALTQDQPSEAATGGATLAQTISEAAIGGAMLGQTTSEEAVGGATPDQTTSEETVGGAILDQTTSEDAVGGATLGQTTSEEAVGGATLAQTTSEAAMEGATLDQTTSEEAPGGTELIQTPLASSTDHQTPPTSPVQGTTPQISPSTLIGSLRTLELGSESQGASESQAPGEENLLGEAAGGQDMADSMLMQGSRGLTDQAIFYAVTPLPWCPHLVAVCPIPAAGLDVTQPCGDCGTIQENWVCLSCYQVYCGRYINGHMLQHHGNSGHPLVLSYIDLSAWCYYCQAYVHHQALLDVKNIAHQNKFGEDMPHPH

[3] = Volume of distribution at steady state in Sprague-Dawley rat at 2 mg/kg, iv measured up to 24 hrs; format: ADME, organism-based; details: in vivo, read-out: Vdss
[4] = Oral bioavailability in Sprague-Dawley rat at 10 mg/kg measured up to 24 hrs; format: ADME, organism-based; details: in vivo
[5] = Aqueous solubility of compound in water incubated at 37 degree C by LC-MS analysis; format: physicochemical
SH-SY5Y = test: Neuroprotective activity against OGD-induced hypoxic injury in human SH-SY5Y cells assessed as LDH release at 5 uM incubated under oxygen/glucose deprivation-induced hypoxic medium by LDH assay (reference value: 27.47 +/- 3.23 %); format: functional
Mus musculus [6] = test: (§1) Anti-vascular cognitive impairment activity against bilateral common carotid artery occlusion-induced vascular dementia C57BL/6J mouse model assessed as reversal of hippocampal atrophy by measuring increase in ratio of size of hippocampus to lateral ventricle at 25 mg/kg, ip administered post surgery measured after 3 months by 7T-MRI analysis; format: functional, organism-based
Mus musculus [7] = test: Upregulation of acetylated H3K14 protein expression in left side cortex of bilateral common carotid artery occlusion-induced vascular dementia C57BL/6J mouse model at 25 mg/kg, ip measured after 3 months by Western blot analysis; format: functional, organism-based
Mus musculus [8] = test: Upregulation of acetylated H4K5 protein expression in hippocampus of bilateral common carotid artery occlusion-induced vascular dementia C57BL/6J mouse model at 25 mg/kg, ip measured after 3 months by Western blot analysis; format: functional, organism-based
Mus musculus [9] = test: as §1, with “hippocampal volume” for “ratio of size of hippocampus to lateral ventricle”; format: functional, organism-based

Histone deacetylase 9, sequence (Q9UKV0 whole entry, the tested form may be a part): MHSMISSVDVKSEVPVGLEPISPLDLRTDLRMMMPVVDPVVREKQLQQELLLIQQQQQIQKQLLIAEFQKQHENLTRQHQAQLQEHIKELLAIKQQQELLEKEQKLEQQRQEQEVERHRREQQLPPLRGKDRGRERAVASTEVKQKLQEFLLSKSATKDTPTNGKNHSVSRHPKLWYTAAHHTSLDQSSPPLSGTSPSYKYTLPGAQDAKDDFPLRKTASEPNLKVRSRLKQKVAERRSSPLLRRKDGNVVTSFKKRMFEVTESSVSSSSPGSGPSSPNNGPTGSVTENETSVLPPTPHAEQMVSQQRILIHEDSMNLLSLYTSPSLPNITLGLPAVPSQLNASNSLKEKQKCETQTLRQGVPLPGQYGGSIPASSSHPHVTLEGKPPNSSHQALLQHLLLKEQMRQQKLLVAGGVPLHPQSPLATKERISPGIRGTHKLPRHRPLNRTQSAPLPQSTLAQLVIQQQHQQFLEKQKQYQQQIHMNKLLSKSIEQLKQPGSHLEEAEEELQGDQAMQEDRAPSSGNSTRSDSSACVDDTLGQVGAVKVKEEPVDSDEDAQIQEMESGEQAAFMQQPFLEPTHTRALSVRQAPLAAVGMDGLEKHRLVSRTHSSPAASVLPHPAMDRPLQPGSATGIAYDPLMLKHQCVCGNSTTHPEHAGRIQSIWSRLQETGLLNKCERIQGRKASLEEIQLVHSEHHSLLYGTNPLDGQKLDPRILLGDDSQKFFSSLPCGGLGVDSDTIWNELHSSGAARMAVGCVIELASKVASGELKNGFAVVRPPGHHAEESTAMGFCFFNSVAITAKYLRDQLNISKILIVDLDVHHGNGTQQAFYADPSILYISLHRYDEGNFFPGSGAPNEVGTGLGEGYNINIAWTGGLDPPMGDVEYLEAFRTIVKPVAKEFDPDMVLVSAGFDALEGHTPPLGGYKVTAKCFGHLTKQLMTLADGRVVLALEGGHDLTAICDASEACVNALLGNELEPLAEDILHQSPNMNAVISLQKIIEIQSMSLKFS

## O=C(/C=C/c1ccc(CNCCCN2c3ccccc3CCc3ccc(Cl)cc32)cc1)NO
[1]
  half-life: 17.2 h
Histone deacetylase 9
  IC50: Not Active
Histone deacetylase 7
  IC50: Not Active
[2]
  IC50: 1.27 µM
[3]
  Vd: 13.8 L/kg
[4]
  bioavailability: 1.8%
[5]
  solubility: < 1 µg/mL
SH-SY5Y
  Activity: 17.73%
Mus musculus [6]
  Activity: Active
Mus musculus [7]
  Activity: Active
Mus musculus [8]
  Activity: Active
Mus musculus [9]
  Activity: Active
